Assay results taken from ChEMBL document CHEMBL5126660, “Sesquiterpenoids from Seriphidium transiliense and Their Melanogenic Activity” (2022).
The source made the active and inactive calls. The calls are words filed in the database; no cut-off is given here.

Columns and labels:
B16 [1] = experiment: Induction of melanogenesis in mouse B16 cells assessed as increase in intracellular melanin content at 50 uM incubated for 49 hrs by NaOH lysis based microplate reader assay; format: functional
B16 [2] = experiment: Induction of melanogenesis in mouse B16 cells assessed as increase in intracellular tyrosinase activity at 50 uM incubated for 48 hrs by L-DOPA oxidation method; format: functional, cell-based
B16 [3] = experiment: Induction of melanogenesis in mouse B16 cells assessed as increase in intracellular melanin content at 1 to 50 uM incubated for 49 hrs by NaOH lysis based microplate reader assay; format: functional, cell-based; settings: dose 1-50 µM, DDE = dose-dependent effect
B16 [4] = experiment: Induction of melanogenesis in mouse B16 cells assessed as upregulation of MITF protein expression at 50 uM incubated for 48 hrs by Western blot analysis; format: functional, cell-based
B16 [5] = experiment: Induction of melanogenesis in mouse B16 cells assessed as upregulation of TYR protein expression at 50 uM incubated for 48 hrs by Western blot analysis; format: functional, cell-based
B16 [6] = experiment: Induction of melanogenesis in mouse B16 cells assessed as upregulation of TRP-1 protein expression at 50 uM incubated for 48 hrs by Western blot analysis; format: functional, cell-based
B16 [7] = experiment: Induction of melanogenesis in mouse B16 cells assessed as upregulation of TRP-2 protein expression at 50 uM incubated for 48 hrs by Western blot analysis; format: functional, cell-based
B16 [8] = experiment: Induction of melanogenesis in mouse B16 cells assessed as upregulation of MITF mRNA expression at 50 uM by RT-PCR analysis; format: functional, cell-based
B16 [9] = experiment: Induction of melanogenesis in mouse B16 cells assessed as upregulation of TYR mRNA expression at 50 uM by RT-PCR analysis; format: functional, cell-based
B16 [10] = experiment: Induction of melanogenesis in mouse B16 cells assessed as upregulation of TRP-1 mRNA expression at 50 uM by RT-PCR analysis; format: functional, cell-based
B16 [11] = experiment: Induction of melanogenesis in mouse B16 cells assessed as upregulation of TRP-2 mRNA expression at 50 uM by RT-PCR analysis; format: functional, cell-based
HaCaT [12] = experiment: Inhibition of JAK/STAT signaling pathway in human HaCaT cells assessed as downregulation of IFN-gamma induced CXCL10 protein level at 1 to 50 uM incubated for 24 hrs by ELISA; format: cell-based; settings: dose 1-50 µM, DDE = dose-dependent effect
HaCaT [13] = experiment: Inhibition of JAK/STAT signaling pathway in human HaCaT cells assessed as downregulation of IFN-gamma induced CXCL10 mRNA expression at 1 to 50 uM by RT-PCR analysis; format: cell-based; settings: dose 1-50 µM, DDE = dose-dependent effect
HaCaT [14] = experiment: Inhibition of JAK/STAT signaling pathway in human HaCaT cells assessed as downregulation of IFN-gamma induced JAK1 protein expression at 1 to 50 uM incubated for 48 hrs by Western blot analysis; format: cell-based; settings: dose 1-50 µM
HaCaT [15] = experiment: Inhibition of JAK/STAT signaling pathway in human HaCaT cells assessed as downregulation of IFN-gamma induced JAK2 protein expression at 50 uM incubated for 48 hrs by Western blot analysis; format: cell-based
HaCaT [16] = experiment: Inhibition of JAK/STAT signaling pathway in human HaCaT cells assessed as downregulation of IFN-gamma induced p-STAT protein expression at 10 to 50 uM incubated for 48 hrs by Western blot analysis; format: cell-based; settings: dose 10-50 µM

Question: With C=C1CC[C@H](O)[C@]2(C)CC[C@H]3[C@@H](C)C(=O)O[C@@H]3[C@@]12O as the compound, how does the Activity (B16 [1]) read?
Answer: Its Activity is “Active”.

Question: Which Activity (B16 [1]) does the source give for C=C1CC[C@@H](O)[C@]2(C)CC[C@@H]([C@@H](C)C(=O)OC)[C@H](O)[C@@]12O here?
Answer: Its Activity is “Active”.

Question: COc1c2occc2cc2ccc(=O)oc12 [METHOXSALEN] was tested. Which Activity (B16 [1]) did it give?
Answer: Its Activity is 138%.

Question: How did the Activity (B16 [1]) turn out when C=C1CC[C@@H](O)[C@]2(C)C[C@H](OC(C)=O)[C@H]3[C@H](C)C(=O)O[C@@H]3[C@@]12O was run?
Answer: Its Activity is “Active”.

Question: For C=C1CC[C@@H](O)[C@]2(C)CC[C@@H]([C@@H](C)C(=O)OC)[C@H](O)[C@]12O, which Activity (B16 [1]) is on record?
Answer: Its Activity is 153%.

Question: And the Activity (B16 [2])?
Answer: The Activity was “Active”.

Question: And the Activity (B16 [3])?
Answer: Its Activity is “Dde”.

Question: And the Activity (B16 [4])?
Answer: Its Activity is “Active”.

Question: What about the Activity (B16 [5]) of the same compound?
Answer: The Activity was “Active”.

Question: What about the Activity (B16 [6]) of the same compound?
Answer: Its Activity is “Active”.

Question: What about the Activity (B16 [7]) of the same compound?
Answer: Its Activity is “Active”.

Question: And the Activity (B16 [8])?
Answer: Its Activity is “Active”.

Question: What about the Activity (B16 [9]) of the same compound?
Answer: The Activity was “Active”.

Question: What about the Activity (B16 [10]) of the same compound?
Answer: Its Activity is “Active”.

Question: What about the Activity (B16 [11]) of the same compound?
Answer: The Activity was “Active”.

Question: And the inhibition (HaCaT [12])?
Answer: The inhibition was “Dde”.

Question: What about the inhibition (HaCaT [13]) of the same compound?
Answer: The inhibition was “Dde”.

Question: What about the inhibition (HaCaT [14]) of the same compound?
Answer: Its inhibition is “Active”.

Question: And the inhibition (HaCaT [15])?
Answer: Its inhibition is “Active”.

Question: And the inhibition (HaCaT [16])?
Answer: The inhibition was “Active”.
